Source: publication PMC9763021, “Comprehensive Assessment of Biomolecular Interactions of Morpholine-Based Mixed Ligand Cu(II) and Zn(II) Complexes of 2,2′-Bipyridine as Potential Anticancer and SARS-CoV-2 Agents: A Synergistic Experimental and Structure-Based Virtual Screening” (Bioinorganic Chemistry and Applications, 2022)

Key:
[1] = system: Salmonella enteric serovar typhi; assay: Agar disc diffusion, strain B; assay type: cell-based; details: for diameter of the clear zone inhibition: control = 6 mm
Experimental: (§1) In-vitro antimicrobial properties were evaluated for all samples by the agar disc diffusion method towards different fungal and bacterial strains. Additionally, the reported inhibition zone values were comparatively analyzed with the standard antifungal drugs ketoconazole and amphotericin B as well as the standard antibiotic medications streptomycin and amikacin.
(§2) The current research has a curious focus on the in vitro antimicrobial properties of biological systems because these studies are crucial for developing effective antibacterial and antifungal medications. […] It can also be spelled out based on the chelation theory proposed by Overtone and Tweedy. Chelation theory points out that the partial exchanging of the positive charge of the metal center with donor moieties, and overlap of the ligand orbitals will reduce the greater degree of the metal ion's polarity, which ultimately rises the delocalization of π and d electrons over the full chelated ring system. By raising the size of the metal ion due to the retarding of polarization, chelation may also enhance the complexes' lipophilic characteristics, which further stimulate the lipid membrane permeability and break down the bacteria' enzymes responsible for cell wall formation, therefore slowing down the regular cell processes. By preventing the production of cell walls/proteins/DNA, including by obstructing folate metabolism and the cytoplasmic membrane, antimicrobial drugs frequently either fully eliminate microbes or only prevent their cell growth. Additionally, the samples' mode of action may be employed in disrupting the cell's respiration process by forming an H-bond during the morpholine-fused iminic group coordinated with the active metal center of its components, inhibiting proliferation of the cell. […] The difference in the antimicrobial efficacy of some of the compounds towards various microorganisms influences on the impermeability of the cells of the germs or the diversity of ribosomes of the microbes. The % of the inhibition of all substances is estimated from (45) (Table 9).
(§3) (A, B, C, D, and E are represented as gram negative bacteria species Escherichia coli, Salmonella enteric serovar typhi, Salmonella enteric serovar typhi, Pseudomonas aeruginosa, and Shigella flexneri, respectively. F & G are denoted as gram positive bacteria species Staphylococcus aureus and Bacillus cereus. H, I, and J are represented as fungal strains Aspergillus niger, Candida albicans, and Mucor indicus. Standard drugs for bacterial strains: Amikacin & Streptomycin Standard drugs for fungal strains: Ketoconazole and Amphotericin B. [Control (DMSO) = 6 mm].(44) Inhibition %=T–C/T×100, where T and C are represented as the diameter of microbial growth of the sample plates and the control plate (6 mm), respectively. Error limits ±2.5–5.0% (P ≤ 0.05).

[2] = Hydroxyl radical scavenging assay; assay type: biochemical; details: for % Inhibition hydroxyl radical: 230 nm
Experimental: (§4) All samples were evaluated for their scavenging ability with the help of UV-visible spectrophotometer at different concentrations of 40, 80, 120, 160, 200, and 240 μM [6, 28]. While performing the antioxidant properties for the DPPH, hydroxyl, superoxide, and nitric oxide radical scavenging, the absorbance at 517, 230, 590, and 546 nm, respectively, was closely observed. In addition, the observed IC50 values of all samples were compared with ascorbic acid.
Hydrogen peroxide receives electrons from antioxidant molecules and then neutralizes them into a water molecule. ^●OH inhibition capability was determined from the % of inhibition for all test substances at 230 nm.

Pseudomonas aeruginosa = assay: Agar disc diffusion, strain D; assay type: cell-based; design: (inhibition %): concentration or dose not given beside the values; details: for diameter of the clear zone inhibition: control = 6 mm
Experimental: as §1, §2, §3

[3] = system: Salmonella enteric serovar typhi; assay: Agar disc diffusion, strain C; assay type: cell-based; details: for diameter of the clear zone inhibition: control = 6 mm
Experimental: as §1, §2, §3

[4] = Superoxide scavenging assay; assay type: biochemical; details: for % Inhibition superoxide: 590 nm
Experimental: as §4
A vital enzyme catalyst in the body's defence against free radicals, superoxide dismutase (SOD) quickly and efficiently reduces toxicity and cellular damage by exchanging superoxide with water (or) harmless molecules. The % of inhibition for all substances was analyzed at 590 nm. The outcomes were obtained in the subsequent order: (ascorbic acid) 84.85 > (1a) 67.17 > (2a) 58.18 > (HL) 50.42.

Structure (SMILES)	(inhibition %) [1]	diameter of the clear zone inhibition [1]	% Inhibition hydroxyl radical ([2]; 40 µM)	% Inhibition hydroxyl radical ([2]; 80 µM)	% Inhibition hydroxyl radical ([2]; 120 µM)	% Inhibition hydroxyl radical ([2]; 160 µM)	% Inhibition hydroxyl radical ([2]; 200 µM)	% Inhibition hydroxyl radical ([2]; 240 µM)	(inhibition %) (Pseudomonas aeruginosa)	diameter of the clear zone inhibition (Pseudomonas aeruginosa)	(inhibition %) [3]	diameter of the clear zone inhibition [3]	% Inhibition superoxide ([4]; 40 µM)	% Inhibition superoxide ([4]; 80 µM)	% Inhibition superoxide ([4]; 120 µM)	% Inhibition superoxide ([4]; 160 µM)	% Inhibition superoxide ([4]; 200 µM)	% Inhibition superoxide ([4]; 240 µM)	IC50 [2]	IC50 [4]
Oc1ccccc1N=Cc1ccc(N2CCOCC2)cc1 [(HL), 2-(4-morpholinobenzylideneamino)phenol]	33%	09 mm	07.26%	14.43%	25.52%	33.86%	40.73%	50.68%	25%	08 mm	45%	11 mm	05.23%	10.74%	18.85%	33.55%	40.91%	50.42%	–	–
[Cu+2].[O-]c1ccccc1N=Cc1ccc(N2CCOCC2)cc1.[O-]c1ccccc1N=Cc1ccc(N2CCOCC2)cc1.c1ccc(-c2ccccn2)nc1 [(1a), [Cu(L)2(bpy)]]	40%	10 mm	09.16%	18.23%	32.22%	40.12%	51.14%	61.10%	33%	09 mm	50%	12 mm	08.32%	16.45%	31.86%	47.69%	60.03%	67.17%	200 µM	200 µM
[O-]c1ccccc1N=Cc1ccc(N2CCOCC2)cc1.[O-]c1ccccc1N=Cc1ccc(N2CCOCC2)cc1.[Zn+2].c1ccc(-c2ccccn2)nc1 [(2a), [Zn(L)2(bpy)]]	33%	09 mm	08.25%	16.86%	25.78%	34.66%	45.78%	56.14%	33%	09 mm	33%	09 mm	06.32%	12.67%	24.14%	40.20%	51.92%	58.18%	–	–
